Test results reported in patent US9416115B2, “Fused heterocyclic compounds as ion channel modulators” (Gilead Sciences, Inc., priority 2013, dated 2016).
Where two headings read alike, the source gives them in different places.

What was measured:
[1] = target: T1, wild-type human cardiac sodium channel, hNav1.5 (Homo sapiens, UniProt Q14524); test: Late INa screening assay (QPatch whole cell patch clamp, Tefluthrin-induced late current); type: cell-based; conditions: HEK293 hNav1.5, percent block of late INa
T1 sequence (Q14524 whole entry): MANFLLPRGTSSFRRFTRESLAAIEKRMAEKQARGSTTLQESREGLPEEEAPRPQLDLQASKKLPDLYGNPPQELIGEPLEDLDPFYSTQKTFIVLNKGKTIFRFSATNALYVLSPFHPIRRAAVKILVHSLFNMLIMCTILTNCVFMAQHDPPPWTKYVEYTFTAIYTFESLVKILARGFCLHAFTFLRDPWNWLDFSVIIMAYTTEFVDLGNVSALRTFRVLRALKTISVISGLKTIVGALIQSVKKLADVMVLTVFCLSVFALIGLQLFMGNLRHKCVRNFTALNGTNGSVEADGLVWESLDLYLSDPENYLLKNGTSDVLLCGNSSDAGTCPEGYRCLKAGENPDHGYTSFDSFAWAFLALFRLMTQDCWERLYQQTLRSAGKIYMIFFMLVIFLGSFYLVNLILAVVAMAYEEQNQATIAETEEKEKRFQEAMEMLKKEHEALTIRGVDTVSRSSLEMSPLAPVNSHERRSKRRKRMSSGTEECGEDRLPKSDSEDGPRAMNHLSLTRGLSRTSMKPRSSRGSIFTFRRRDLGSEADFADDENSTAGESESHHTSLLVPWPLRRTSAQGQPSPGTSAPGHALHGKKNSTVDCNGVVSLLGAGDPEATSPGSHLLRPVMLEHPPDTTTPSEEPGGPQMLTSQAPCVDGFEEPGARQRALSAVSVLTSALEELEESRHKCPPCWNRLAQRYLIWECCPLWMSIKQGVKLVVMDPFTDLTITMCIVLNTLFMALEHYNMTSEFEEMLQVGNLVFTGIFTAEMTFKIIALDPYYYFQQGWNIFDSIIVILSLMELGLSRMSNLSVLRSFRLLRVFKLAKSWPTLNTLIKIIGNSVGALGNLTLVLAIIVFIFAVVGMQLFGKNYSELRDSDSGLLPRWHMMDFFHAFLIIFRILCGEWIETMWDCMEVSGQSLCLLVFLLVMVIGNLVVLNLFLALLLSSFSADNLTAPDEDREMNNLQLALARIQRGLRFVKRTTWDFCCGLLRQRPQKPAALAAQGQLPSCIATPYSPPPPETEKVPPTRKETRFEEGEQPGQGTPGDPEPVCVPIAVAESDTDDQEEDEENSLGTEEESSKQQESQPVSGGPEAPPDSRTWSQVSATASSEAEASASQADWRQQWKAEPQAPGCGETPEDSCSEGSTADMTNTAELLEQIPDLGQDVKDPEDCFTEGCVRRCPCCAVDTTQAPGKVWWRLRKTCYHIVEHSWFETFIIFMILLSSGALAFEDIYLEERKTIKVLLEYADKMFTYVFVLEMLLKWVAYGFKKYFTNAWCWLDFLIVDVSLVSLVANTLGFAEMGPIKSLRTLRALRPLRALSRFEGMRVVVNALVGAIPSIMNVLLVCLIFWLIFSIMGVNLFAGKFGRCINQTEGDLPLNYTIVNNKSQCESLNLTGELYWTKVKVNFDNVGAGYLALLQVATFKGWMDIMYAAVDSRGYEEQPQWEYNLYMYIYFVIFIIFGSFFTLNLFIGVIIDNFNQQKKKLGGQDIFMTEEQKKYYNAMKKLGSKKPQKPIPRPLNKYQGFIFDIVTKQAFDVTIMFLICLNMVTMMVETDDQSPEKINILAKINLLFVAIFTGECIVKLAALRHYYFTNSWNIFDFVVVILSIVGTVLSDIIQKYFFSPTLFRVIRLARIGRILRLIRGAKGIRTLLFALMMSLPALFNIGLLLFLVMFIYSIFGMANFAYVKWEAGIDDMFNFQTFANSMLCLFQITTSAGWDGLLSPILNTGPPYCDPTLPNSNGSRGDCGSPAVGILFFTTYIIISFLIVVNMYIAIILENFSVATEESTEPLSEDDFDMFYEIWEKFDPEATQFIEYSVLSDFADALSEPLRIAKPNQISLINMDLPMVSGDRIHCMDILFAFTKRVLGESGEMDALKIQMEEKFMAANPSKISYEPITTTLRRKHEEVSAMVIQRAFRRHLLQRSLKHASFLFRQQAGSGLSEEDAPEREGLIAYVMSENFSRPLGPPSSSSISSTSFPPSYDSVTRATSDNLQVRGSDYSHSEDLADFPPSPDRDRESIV
Method: (§1) The cardiac late sodium current (Late INa) and peak sodium current (Peak INa) assays are performed on an automated electrophysiology platform, QPatch 16X or QPatch HT (Sophion Bioscience, Copenhagen, Denmark) using the whole cell patch clamp technique to measure currents through the cell membrane. The assay uses an HEK293 (human embryonic kidney) cell line heterologously expressing the wild-type human cardiac sodium channel, hNav1.5, purchased from Millipore (Billerica, Mass.). No beta subunits were coexpressed with the Na channel alpha subunit. Cells are maintained with standard tissue culture procedures and stable channel expression is maintained with 400 μg/mL Geneticin in the culture medium. Experiments are carried out at 23-25° C.
(§2) For both the Late INa and Peak INa assays, series resistance compensation is set to 100% and series resistance and whole-cell compensation are performed automatically. Currents are digitized at 25 kHz and low-pass filtered at 5 kHz and stored in the Sophion Bioscience Oracle database (Sophion Bioscience, Copenhagen, Denmark). Analysis is performed using QPatch Assay software and data are compiled in Excel 2010 (Microsoft, Seattle, Wash., U.S.A.).
(§3) Compound stocks are routinely made by the Gilead Sample Bank in vials to 10 mM in dimethyl sulfoxide (DMSO). In some cases, when compounds are not soluble in DMSO, they are made in 100% ethanol. Stocks are sonicated as necessary. The extracellular solution for screening Late INa is composed of: 140 mM NaCl, 4 mM KCl, 1.8 mM CaCl2, 1 mM MgCl2, 10 mM HEPES and 10 mM Dextrose with pH adjusted to 7.35 using NaOH. The intracellular solution contains: 105 mM CsF, 20 mM CsCl, 10NaF, 2 mM EGTA, 10 mM HEPES and 10 mM Dextrose with pH adjusted to 7.35 with CsOH. Compounds are diluted in extracellular solution using a MicroLab Nimbus (Hamilton Robotics, Reno, Nev.) to between 0.3 and 3 μM in glass vials and transferred to glass well plates before robotic addition to the cells. The 0 mM Na extracellular solution (0Na-ECF) used at the end of each experiment for the Late INa and Peak INa assays to measure baseline current contains: 140 Choline-Cl; 4 mM KCl, 1.8 mM CaCl2; 1 mM MgCl2; 10 mM HEPES and 10 mM Dextrose with pH was adjusted to 7.35 with CsOH.
For the Late INa assay, sodium channels are activated every 10 seconds (0.1 Hz) by depolarizing the cell membrane to −20 mV for 250 milliseconds (ms) from a holding potential of −120 mV.
Compounds were tested to determine their activity in blocking the late sodium current. Late INa was generated by adding 10 μM Tefluthrin (pyrethroid) to the extracellular solution. For the purposes of the screening, Late INa is defined as the mean current between […] during the voltage step to −20 mV. After establishing the whole cell recording configuration, Late INa activator is added to each well 4 times over a 15 minute period so that the late component of the Na current reaches a stable value. Compounds were then added (typically at 0.3 or 1 μM), in the presence of the Late Na^+ activator, with 3 additions over the course of 5 minutes. Measurements were made at the end of exposure to the third compound addition and values were normalized to the current level when all Na^+ was removed from the extracellular solution after two additions of 0Na-ECF.
Results are reported as percent block of late INa and results were analyzed by incorporating rundown correction for the Late INa.

[2] = target: T1, wild-type human cardiac sodium channel, hNav1.5; test: Peak INa screening assay (tonic block and use-dependent block); type: cell-based
Method: as §1, §2, §3
Compounds were evaluated for their effect Nav1.5 Peak INa. It is contemplated that the compounds of Formula I avoid significant block of peak INa. Since the peak INa in the cells used herein can be very large, introducing artifacts in the recording, the concentration of Na^+ in the bath can be reduced to 40 mM by isosmotic replacement of Na^+ with Choline (see below).
Tonic Block (TB) of Peak INa was measured using a voltage step to −20 mV from a holding potential of −100 mV at a low stimulation frequency of 0.1 Hz. Use-Dependent Block (UDB) of Peak INa was measured during pulse number 50 of a pulse train (−20 mV, 20 ms, 50 pulses, 3 Hz) from a holding potential of −100 mV.
The extracellular solution for screening Peak INa is composed of: 40 mM NaCl, 100 mM Choline-Cl, 4 mM KCl, 1.8 mM CaCl2, 1 mM MgCl2 10 mM HEPES and 10 mM Dextrose with pH adjusted to 7.35 using NaOH. The intracellular solution used for the Peak INa assay is the same as outlined for the Late INa assay (see above).
After establishing the whole cell recording configuration, channels were stimulated to open with low frequency (0.1 Hz) so that the recording can be monitored and the extent to which the recording has stabilized can be assessed.
The test compound is then applied at 1 or 3 μM and was added 2 times at 60 second intervals. After the second compound addition, a 200 second wait period was imposed to allow for equilibration. Voltage protocols for TB and UDB are were performed in the absence and presence of compound and TB and UDB are calculated with respect to the compound free condition. Both TB and UDB were analyzed by incorporating rundown correction for the peak INa.

[3] = tonic block of Peak INa, 0.1 Hz, holding -100 mV, read-out: Peak TB 3 uM
[4] = use-dependent block of Peak INa, 3 Hz, pulse 50, read-out: Peak UDB 3 Hz 3 uM

Row | Compound | inhibition at 0.3 µM [1] [%] | inhibition at 1 µM [1] [%] | inhibition at 3 µM [2, 3] [%] | inhibition at 3 µM [2, 4] [%]
1 | FC(F)(F)Oc1ccc(-c2ccc3onc(OCC4CCO4)c3c2)cc1 (stereo not shown) [Example 42, 3-(oxetan-2-ylmethoxy)-5-(4-(trifluoromethoxy)phenyl)benzo[d]isoxazole] | 17.5 | 57.3 | 27.6 | < 5
2 | Cc1nnc(COc2noc3ccc(-c4ccc(OC(F)(F)F)cc4)cc23)s1 [Example 101, 3-((5-methyl-1,3,4-thiadiazol-2-yl)methoxy)-5-(4-(trifluoromethoxy)phenyl)benzo[d]isoxazole] | – | 54.6 | 13.5 | < 5
3 | Fc1cccnc1COc1noc2ccc(-c3ccc(OC(F)(F)F)cc3)cc12 [Example 94, 3-((3-fluoropyridin-2-yl)methoxy)-5-(4-(trifluoromethoxy)phenyl)benzo[d]isoxazole] | 35.1 | 58.7 | 17.1 | < 5
4 | Cc1cc(COc2noc3ccc(-c4ccc(OC(F)(F)F)cc4)cc23)on1 [Example 102, 3-((3-methylisoxazol-5-yl)methoxy)-5-(4-(trifluoromethoxy)phenyl)benzo[d]isoxazole] | – | 43.1 | 27.8 | 7.7
5 | CC(=O)N1CCOC[C@@H]1COc1noc2ccc(-c3ccc(OC(F)(F)F)cc3)cc12 [Example 116, (R)-1-(3-(((5-(4-(trifluoromethoxy)phenyl)benzo[d]isoxazol-3-yl)oxy)methyl)morpholino)ethan-1-one] | – | 48.3 | 28.9 | 15
6 | CC(C)NC(=O)COc1noc2ccc(-c3ccc(OC(F)(F)F)cc3)cc12 [Example 122, N-isopropyl-2-((5-(4-(trifluoromethoxy)phenyl)benzo[d]isoxazol-3-yl)oxy)acetamide] | – | 41.3 | 10.7 | < 5
7 | COc1ccnc(COc2noc3ccc(-c4ccc(OC(F)(F)F)cc4)cc23)n1 [Example 67, 3-((4-methoxypyrimidin-2-yl)methoxy)-5-(4-(trifluoromethoxy)phenyl)benzo[d]isoxazole] | 54.4 | 77.4 | 48.7 | < 5
8 | FC(F)(F)Oc1ccc(-c2ccc3onc(NCc4ncco4)c3c2)cc1 [Example 156, N-(oxazol-2-ylmethyl)-5-(4-(trifluoromethoxy)phenyl)benzo[d]isoxazol-3-amine] | 37.9 | 62.8 | 10.4 | < 5
9 | FC(F)(F)Oc1cccc(-c2ccc3onc(OCc4ncccn4)c3c2)c1 [Example 10, 3-(pyrimidin-2-ylmethoxy)-5-(3-(trifluoromethoxy)phenyl)benzo[d]isoxazole] | – | 41 | 16.4 | 5.7
10 | CC(=O)N1CC(COc2noc3ccc(-c4ccc(OC(F)(F)F)cc4)cc23)C1 [Example 110, 1-(3-(((5-(4-(trifluoromethoxy)phenyl)benzo[d]isoxazol-3-yl)oxy)methyl)azetidin-1-yl)ethan-1-one] | 25.7 | 62.7 | 14.5 | 11.5
11 | CC(=O)N1CCOC[C@H]1COc1noc2ccc(-c3ccc(OC(F)(F)F)cc3)cc12 [Example 115, (S)-1-(3-(((5-(4-(trifluoromethoxy)phenyl)benzo[d]isoxazol-3-yl)oxy)methyl)morpholino)ethan-1-one] | 23.5 | 56.7 | 19.8 | 18.3
12 | Cc1cc(OC(F)(F)F)ccc1-c1ccc2onc(OCc3ncccn3)c2c1 [Example 3, 5-(2-methyl-4-(trifluoromethoxy)phenyl)-3-(pyrimidin-2-ylmethoxy)benzo[d]isoxazole] | – | 52.6 | 23.2 | 11.8
13 | C[C@H](COc1noc2ccc(-c3ccc(OC(F)(F)F)cc3)cc12)N1CCCC1=O [Example 119, (R)-1-(1-((5-(4-(trifluoromethoxy)phenyl)benzo[d]isoxazol-3-yl)oxy)propan-2-yl)pyrrolidin-2-one] | – | 51.2 | 36.1 | 6.4
14 | COc1cc(-c2ccc(OC(F)(F)F)cc2)cc2c(OCc3ncccn3)noc12 [Example 22, 7-methoxy-3-(pyrimidin-2-ylmethoxy)-5-(4-(trifluoromethoxy)phenyl)benzo[d]isoxazole] | 17.7 | 55.9 | 10.2 | < 5
15 | CC(C)c1nccn1-c1noc2ccc(-c3ccc(OC(F)(F)F)cc3)cc12 [Example 144, 3-(2-isopropyl-1H-imidazol-1-yl)-5-(4-(trifluoromethoxy)phenyl)benzo[d]isoxazole] | 25.9 | 55.7 | 46.9 | < 5
16 | Cc1cc2onc(OCc3ncccn3)c2cc1-c1ccc(C(F)(F)F)cc1F [Example 28, 5-(2-fluoro-4-(trifluoromethyl)phenyl)-6-methyl-3-(pyrimidin-2-ylmethoxy)benzo[d]isoxazole] | 26.7 | 54.4 | 21.6 | < 5
17 | Fc1cc(-c2ccc3onc(OCc4ncccn4)c3c2)ccc1Cl [Example 8, 5-(4-chloro-3-fluorophenyl)-3-(pyrimidin-2-ylmethoxy)benzo[d]isoxazole] | – | 52.6 | 13.1 | < 5
18 | Nc1noc2ccc(-c3ccc(OC(F)(F)F)cc3)cc12 [Example 147, 5-(4-(trifluoromethoxy)phenyl)benzo[d]isoxazol-3-amine] | – | 45.4 | 26 | 3
19 | CC(C)[C@@H](COc1noc2ccc(-c3ccc(OC(F)(F)F)cc3)cc12)N1CCCC1=O [Example 120, (S)-1-(3-methyl-1-((5-(4-(trifluoromethoxy)phenyl)benzo[d]isoxazol-3-yl)oxy)butan-2-yl)pyrrolidin-2-one] | 35.8 | 58.2 | 35.2 | 6.6
